{
  "source": "ChEMBL document CHEMBL5236658",
  "about": "“Trienomycin A-simplified analogs: Synthesis and anti-neuroinflammatory activity” (Bioorg Med Chem Lett, 2023)",
  "key": {"BV-2 [1]": {"tested_on": "BV-2", "assay": "Antineuroinflammatory activity in mouse BV-2 cells assessed as inhibition of LPS-induced NO production at 10 uM by Griess assay", "assay_type": "functional", "set-up": "scale not given: the % may be the effect or the level left"}, "[2]": {"assay": "Cytotoxicity against mouse BV-2 cells assessed as cell viability at 20 uM", "assay_type": "toxicity, cell-based", "conditions": "read-out: Activity"}, "[3]": {"assay": "Neurotoxicity against rat PC-12 cells at 20 uM incubated for 24 hrs by MTT assay", "assay_type": "toxicity, cell-based", "conditions": "pc-12, 24 h"}, "BV-2 [4]": {"tested_on": "BV-2", "assay": "Antineuroinflammatory activity in mouse BV-2 cells assessed as inhibition of LPS-induced NO production by Griess assay", "assay_type": "functional, cell-based"}, "PC-12": {"tested_on": "PC-12", "assay": "Neuroprotective activity against H2O2-induced rat PC-12 cells injury assessed as cell viability at 10 uM preincubated for 4 hrs followed by H2O2 stimulation and measured after 24 hrs by MTT assay (reference value: 56%)", "assay_type": "functional", "conditions": "time 28 hrs, read-out: Activity"}},
  "data": [
    {"smiles": "C[C@@H](NC(=O)C1CCCCC1)C(=O)OC1CC=CC1", "values": [
      {"measurement": "Activity", "setting": "BV-2 [1]", "result": 17.7, "unit": "%"},
      {"measurement": "viability at 20 µM", "setting": "[2]", "result": 91.5, "unit": "%"}
    ]},
    {"smiles": "C[C@@H](NC(=O)C1CCCCC1)C(=O)OC1CCCC1", "values": [
      {"measurement": "Activity", "setting": "[3]", "result": "Non-Toxic"},
      {"measurement": "Activity", "setting": "BV-2 [1]", "result": 36, "unit": "%"},
      {"measurement": "viability at 20 µM", "setting": "[2]", "result": 86.2, "unit": "%"}
    ]},
    {"smiles": "C[C@@H](NC(=O)C1CCCCC1)C(=O)OC1CC/C=C\\CCC1", "note": "(some centres undefined)", "values": [
      {"measurement": "Activity", "setting": "BV-2 [1]", "result": 28.4, "unit": "%"},
      {"measurement": "viability at 20 µM", "setting": "[2]", "result": 112, "unit": "%"}
    ]},
    {"smiles": "C[C@@H](NC(=O)C1CCCCC1)C(=O)OC1CCC1", "values": [
      {"measurement": "Activity", "setting": "BV-2 [1]", "result": 8, "unit": "%"},
      {"measurement": "viability at 20 µM", "setting": "[2]", "result": 106, "unit": "%"}
    ]},
    {"smiles": "O=c1c(O)c(-c2ccc(O)c(O)c2)oc2cc(O)cc(O)c12", "note": "[QUERCETIN]", "values": [
      {"measurement": "Activity", "setting": "BV-2 [1]", "result": 63.2, "unit": "%"},
      {"measurement": "viability at 20 µM", "setting": "[2]", "result": 98.7, "unit": "%"}
    ]},
    {"smiles": "C[C@@H](NC(=O)C1CCCCC1)C(=O)O", "values": [
      {"measurement": "Activity", "setting": "BV-2 [1]", "result": 6.72, "unit": "%"},
      {"measurement": "viability at 20 µM", "setting": "[2]", "result": 101, "unit": "%"}
    ]},
    {"smiles": "CO[C@H]1/C=C/C=C/C=C/C[C@H](OC(=O)[C@@H](C)NC(=O)C2CCCCC2)[C@H](C)[C@@H](O)/C(C)=C\\CCc2cc(O)cc(c2)NC(=O)C1", "note": "[TRIENOMYCIN A]", "values": [
      {"measurement": "EC50", "setting": "BV-2 [4]", "result": 0.02, "unit": "µM"}
    ]},
    {"smiles": "CO[C@H]1/C=C/C=C/C=C/C[C@H](O)[C@H](C)[C@@H](O)/C(C)=C\\CCc2cc(O)cc(c2)NC(=O)C1", "values": [
      {"measurement": "EC50", "setting": "BV-2 [4]", "result": 13, "unit": "µM"}
    ]},
    {"smiles": "C[C@@H](NC(=O)C1CCCCC1)C(=O)OC1CCCCCCCCCCCCCC1", "values": [
      {"measurement": "Activity", "setting": "BV-2 [1]", "result": 12.5, "unit": "%"},
      {"measurement": "viability at 20 µM", "setting": "[2]", "result": 109, "unit": "%"}
    ]},
    {"smiles": "C[C@H](NC(=O)C1CCCCC1)C(=O)OCC1CCCCC1", "values": [
      {"measurement": "EC50", "setting": "BV-2 [4]", "result": 8.9, "unit": "µM"},
      {"measurement": "viability at 10 µM", "setting": "PC-12", "result": 76, "unit": "%"},
      {"measurement": "Activity", "setting": "[3]", "result": "Non-Toxic"},
      {"measurement": "Activity", "setting": "BV-2 [1]", "result": 52.9, "unit": "%"},
      {"measurement": "viability at 20 µM", "setting": "[2]", "result": 92.7, "unit": "%"}
    ]},
    {"smiles": "C[C@@H](NC(=O)C1CCCCC1)C(=O)OCC1CCCCC1", "values": [
      {"measurement": "EC50", "setting": "BV-2 [4]", "result": 24.1, "unit": "µM"},
      {"measurement": "Activity", "setting": "[3]", "result": "Non-Toxic"},
      {"measurement": "Activity", "setting": "BV-2 [1]", "result": 31.1, "unit": "%"},
      {"measurement": "viability at 20 µM", "setting": "[2]", "result": 98.3, "unit": "%"}
    ]},
    {"smiles": "C[C@@H](NC(=O)C1CCCCC1)C(=O)OC1CCCCCC1", "values": [
      {"measurement": "Activity", "setting": "BV-2 [1]", "result": 18, "unit": "%"},
      {"measurement": "viability at 20 µM", "setting": "[2]", "result": 96.1, "unit": "%"}
    ]},
    {"smiles": "C[C@@H](NC(=O)C1CCCCC1)C(=O)OCc1ccccc1", "values": [
      {"measurement": "EC50", "setting": "BV-2 [4]", "result": 12.4, "unit": "µM"},
      {"measurement": "viability at 10 µM", "setting": "PC-12", "result": 80, "unit": "%"},
      {"measurement": "Activity", "setting": "[3]", "result": "Non-Toxic"},
      {"measurement": "Activity", "setting": "BV-2 [1]", "result": 47.2, "unit": "%"},
      {"measurement": "viability at 20 µM", "setting": "[2]", "result": 93, "unit": "%"}
    ]},
    {"smiles": "C[C@@H](NC(=O)C1CCCCC1)C(=O)OC1CCCCC1", "values": [
      {"measurement": "EC50", "setting": "BV-2 [4]", "result": 22, "unit": "µM"},
      {"measurement": "Activity", "setting": "[3]", "result": "Non-Toxic"},
      {"measurement": "Activity", "setting": "BV-2 [1]", "result": 34.6, "unit": "%"},
      {"measurement": "viability at 20 µM", "setting": "[2]", "result": 97.5, "unit": "%"}
    ]},
    {"smiles": "C[C@@H](NC(=O)C1CCCCC1)C(=O)OC1CCCCCCC1", "values": [
      {"measurement": "Activity", "setting": "BV-2 [1]", "result": 8.3, "unit": "%"},
      {"measurement": "viability at 20 µM", "setting": "[2]", "result": 84, "unit": "%"}
    ]},
    {"smiles": "C[C@@H](NC(=O)C1CCCCC1)C(=O)OC1CCCCCCCCCCC1", "values": [
      {"measurement": "Activity", "setting": "BV-2 [1]", "result": 19, "unit": "%"},
      {"measurement": "viability at 20 µM", "setting": "[2]", "result": 105, "unit": "%"}
    ]},
    {"smiles": "C[C@H](NC(=O)C1CCCCC1)C(=O)OCc1ccccc1", "values": [
      {"measurement": "EC50", "setting": "BV-2 [4]", "result": 23.6, "unit": "µM"},
      {"measurement": "Activity", "setting": "[3]", "result": "Non-Toxic"},
      {"measurement": "Activity", "setting": "BV-2 [1]", "result": 31.8, "unit": "%"},
      {"measurement": "viability at 20 µM", "setting": "[2]", "result": 90, "unit": "%"}
    ]},
    {"smiles": "C[C@@H](NC(=O)C1CCCCC1)C(=O)OC1CC1", "values": [
      {"measurement": "Activity", "setting": "BV-2 [1]", "result": 9.7, "unit": "%"},
      {"measurement": "viability at 20 µM", "setting": "[2]", "result": 97.6, "unit": "%"}
    ]},
    {"smiles": "C[C@H](NC(=O)C1CCCCC1)C(=O)OC1CCCCC1", "values": [
      {"measurement": "EC50", "setting": "BV-2 [4]", "result": 17.3, "unit": "µM"},
      {"measurement": "viability at 10 µM", "setting": "PC-12", "result": 67, "unit": "%"},
      {"measurement": "Activity", "setting": "[3]", "result": "Non-Toxic"},
      {"measurement": "Activity", "setting": "BV-2 [1]", "result": 41.8, "unit": "%"},
      {"measurement": "viability at 20 µM", "setting": "[2]", "result": 91.5, "unit": "%"}
    ]},
    {"smiles": "C[C@@H](NC(=O)C1CCCCC1)C(=O)OC1C=CCCC1", "note": "(some centres undefined)", "values": [
      {"measurement": "Activity", "setting": "BV-2 [1]", "result": 14.5, "unit": "%"},
      {"measurement": "viability at 20 µM", "setting": "[2]", "result": 85.4, "unit": "%"}
    ]}
  ]
}
